pIC50: −log10 of the molar value.
Target: T1, Recombinant human KIF18A (1-467 His-tagged) protein (Homo sapiens, UniProt Q8NI77)
T1 construct: Recombinant human KIF18A (1-467 His-tagged) protein; His; made in house
Assay: KIF18A Enzyme Assay: microtubule-stimulated ATPase activity (ADP-Glo)
Assay type: biochemical
Details: 30 nM KIF18A, 30 μg/mL pig microtubules, 75 μM ATP, ADP-Glo luminescence
In short: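 His-tagged human KIF18A (1-467, baculovirus), 30 nM, pre-incubated 15 min with compound in Tris pH 7.5 containing 30 μg/mL taxol-stabilised pig microtubules. ATP was then added at Km (75 μM) for 15 min at room temperature. ADP was measured by ADP-Glo luminescence, and IC50 was fitted by 4-parameter logistic over 22 points.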

T1 sequence (Q8NI77 1-467): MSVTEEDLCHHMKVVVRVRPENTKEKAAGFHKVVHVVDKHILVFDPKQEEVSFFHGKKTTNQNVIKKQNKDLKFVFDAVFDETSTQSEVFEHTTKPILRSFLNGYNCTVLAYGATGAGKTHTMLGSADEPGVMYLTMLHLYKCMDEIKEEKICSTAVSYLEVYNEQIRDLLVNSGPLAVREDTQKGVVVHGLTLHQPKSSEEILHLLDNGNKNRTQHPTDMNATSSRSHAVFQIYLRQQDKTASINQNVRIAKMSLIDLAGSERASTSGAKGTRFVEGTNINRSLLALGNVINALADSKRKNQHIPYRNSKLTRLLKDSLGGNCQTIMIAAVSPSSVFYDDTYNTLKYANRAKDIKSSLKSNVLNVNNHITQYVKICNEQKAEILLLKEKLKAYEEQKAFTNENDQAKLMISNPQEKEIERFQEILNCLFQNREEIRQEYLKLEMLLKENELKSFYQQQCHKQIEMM
T1 sequence (P02550 whole entry partner): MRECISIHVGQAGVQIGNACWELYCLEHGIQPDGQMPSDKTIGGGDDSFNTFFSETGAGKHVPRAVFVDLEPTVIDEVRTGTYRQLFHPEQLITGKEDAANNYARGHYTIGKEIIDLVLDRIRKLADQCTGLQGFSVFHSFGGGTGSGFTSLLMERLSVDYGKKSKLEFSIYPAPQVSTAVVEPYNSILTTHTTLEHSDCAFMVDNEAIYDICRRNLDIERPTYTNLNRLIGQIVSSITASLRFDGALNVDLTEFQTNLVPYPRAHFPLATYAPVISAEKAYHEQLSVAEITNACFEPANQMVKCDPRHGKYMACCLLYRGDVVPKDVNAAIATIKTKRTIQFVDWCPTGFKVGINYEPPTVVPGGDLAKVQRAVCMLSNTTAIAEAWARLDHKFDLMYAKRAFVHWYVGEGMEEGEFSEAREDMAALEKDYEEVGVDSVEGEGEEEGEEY
T1 sequence (P02554 whole entry partner): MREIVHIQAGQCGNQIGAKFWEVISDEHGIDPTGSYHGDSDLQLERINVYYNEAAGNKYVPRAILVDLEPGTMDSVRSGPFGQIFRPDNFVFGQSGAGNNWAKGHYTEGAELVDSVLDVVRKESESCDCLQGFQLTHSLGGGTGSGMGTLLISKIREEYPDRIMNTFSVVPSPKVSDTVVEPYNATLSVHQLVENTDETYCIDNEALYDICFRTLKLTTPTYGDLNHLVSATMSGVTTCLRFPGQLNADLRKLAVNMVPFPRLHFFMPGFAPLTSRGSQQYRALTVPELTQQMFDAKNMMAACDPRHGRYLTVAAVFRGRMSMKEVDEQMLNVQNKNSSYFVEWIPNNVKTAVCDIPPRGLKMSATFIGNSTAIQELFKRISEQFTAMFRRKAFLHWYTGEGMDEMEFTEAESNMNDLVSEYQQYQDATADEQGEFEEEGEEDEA

| SMILES | pIC50 |
| --- | --- |
| C[C@@H]1CN(c2cccc(NC(=O)c3ncc(NC(C)(C)CO)nc3N3CCC4(CC3)CC4)n2)CCO1 [Example 104, (R)-5-((1-hydroxy-2-methylpropan-2-yl)amino)-N-(6-(2-methylmorpholino)pyridin-2-yl)-3-(6-azaspiro[2.5]octan-6-yl)pyrazine-2-carboxamide] | 7.08 |
| CC(C)(CO)Nc1ccc(C(=O)Nc2cccc(N3CCOCC3)n2)c(N2CCC3(CC2)CC3)n1 [Example 127, 2-(6-azaspiro[2.5]oct-6-yl)-6-((2-hydroxy-1,1-dimethylethyl)amino)-N-(6-(4-morpholinyl)-2-pyridinyl)-3-pyridinecarboxamide] | 7.28 |
| CC(CO)(CO)Nc1cnc(C(=O)Nc2cccc(N3CCOCC3)n2)c(N2CCC3(CC2)CC3)n1 [Example 115, 3-(6-azaspiro[2.5]octan-6-yl)-5-((1,3-dihydroxy-2-methyl-2-propanyl)amino)-N-(6-(4-morpholinyl)-2-pyridinyl)-2-pyrazinecarboxamide] | 6.98 |
| CC(O)(c1ccc(C(=O)Nc2cccc(N3CCOCC3)n2)c(N2CCC3(CC2)CC3)n1)C(F)(F)F (stereo not drawn) [Example 140, N-(6-morpholinopyridin-2-yl)-2-(6-azaspiro[2.5]octan-6-yl)-6-(1,1,1-trifluoro-2-hydroxypropan-2-yl)nicotinamide] | 7.15 |
| CC(C)(C)NS(=O)(=O)c1cccc(NC(=O)c2ccc(NC(C)(C)CO)nc2N2CCC3(CC2)CC3)n1 [Example 123, 2-(6-azaspiro[2.5]oct-6-yl)-N-(6-(tert-butylsulfamoyl)-2-pyridinyl)-6-((2-hydroxy-1,1-dimethylethyl)amino)-3-pyridinecarboxamide] | 7.19 |
| CC(C)(CO)Nc1ccc(C(=O)Nc2cccc(N3CCC(O)C3)n2)c(N2CCC3(CC2)CC3)n1 (stereo not drawn) [Example 131, 6-((1-hydroxy-2-methylpropan-2-yl)amino)-N-(6-(3-hydroxypyrrolidin-1-yl)pyridin-2-yl)-2-(6-azaspiro[2.5]octan-6-yl)nicotinamide] | 6.53 |
| C[C@H]1CN(c2cccc(NC(=O)c3ccc(NC(C)(C)CO)nc3N3CCC4(CC3)CC4)n2)C[C@H](C)O1 (racemic) [Example 150, N-(6-((2S,6S)-2,6-dimethylmorpholino)pyridin-2-yl)-6-((1-hydroxy-2-methylpropan-2-yl)amino)-2-(6-azaspiro[2.5]octan-6-yl)nicotinamide] | 7.00 |
| CC(C)(CO)Nc1cnc(C(=O)Nc2cc(C3CC3)cc(N3CCOCC3)n2)c(N2CCC3(CC2)CC3)n1 [Example 118, 3-(6-azaspiro[2.5]octan-6-yl)-N-(4-cyclopropyl-6-(4-morpholinyl)-2-pyridinyl)-5-((1-hydroxy-2-methyl-2-propanyl)amino)-2-pyrazinecarboxamide] | 6.27 |
| C[C@](O)(c1ccc(C(=O)Nc2cccc(N3CCOCC3)n2)c(N2CCC3(CC2)CC3)n1)C(F)(F)F [Example 142, 2-(6-azaspiro[2.5]oct-6-yl)-N-(6-(4-morpholinyl)-2-pyridinyl)-6-((2S)-1,1,1-trifluoro-2-hydroxy-2-propanyl)-3-pyridinecarboxamide] | 7.24 |
| COC1CN(c2cccc(NC(=O)c3ccc(NC(C)(C)CO)nc3N3CCC4(CC3)CC4)n2)C1 [Example 145, 2-(6-azaspiro[2.5]oct-6-yl)-6-((1-hydroxy-2-methyl-2-propanyl)amino)-N-(6-(3-methoxy-1-azetidinyl)-2-pyridinyl)-3-pyridinecarboxamide] | 6.77 |
| Cc1cc(NC(=O)c2ncc(NC(C)(C)CO)nc2N2CCC3(CC2)CC3)nc(N2CCOCC2)c1 [Example 114, 3-(6-azaspiro[2.5]octan-6-yl)-5-((1-hydroxy-2-methyl-2-propanyl)amino)-N-(4-methyl-6-(4-morpholinyl)-2-pyridinyl)-2-pyrazinecarboxamide] | 6.75 |
| C[C@@H]1CN(c2cccc(NC(=O)c3ccc([C@](C)(O)CO)nc3N3CCC4(CC3)CC4)n2)CCO1 [Example 167, 2-(6-azaspiro[2.5]octan-6-yl)-6-((2S)-1,2-dihydroxy-2-propanyl)-N-(6-((2R)-2-methyl-4-morpholinyl)-2-pyridinyl)-3-pyridinecarboxamide] | 7.09 |
| CC(C)(CO)Nc1ccc(C(=O)Nc2cccc(C3CCOCC3)n2)c(N2CCC3(CC2)CC3)n1 [Example 146, 2-(6-azaspiro[2.5]oct-6-yl)-6-((1-hydroxy-2-methyl-2-propanyl)amino)-N-(6-(tetrahydro-2H-pyran-4-yl)-2-pyridinyl)-3-pyridinecarboxamide] | 6.61 |
| COc1cc(NC(=O)c2ccc(NC(C)(C)CO)nc2N2CCC3(CC2)CC3)nc(N2CCOCC2)c1 [Example 158, 2-(6-azaspiro[2.5]octan-6-yl)-6-((1-hydroxy-2-methyl-2-propanyl)amino)-N-(4-methoxy-6-(4-morpholinyl)-2-pyridinyl)-3-pyridinecarboxamide] | 6.40 |
| CC(C)(CO)Nc1ccc(C(=O)Nc2cccc(N3C[C@@H]4C[C@H]3CO4)n2)c(N2CCC3(CC2)CC3)n1 (racemic) [Example 151, N-(6-((1S,4S)-2-oxa-5-azabicyclo[2.2.1]heptan-5-yl)pyridin-2-yl)-6-((1-hydroxy-2-methylpropan-2-yl)amino)-2-(6-azaspiro[2.5]octan-6-yl)nicotinamide] | 7.04 |
| CC(C)(CO)Nc1ccc(C(=O)Nc2cccc(N3CC(F)C3)n2)c(N2CCC3(CC2)CC3)n1 [Example 144, 2-(6-azaspiro[2.5]oct-6-yl)-N-(6-(3-fluoro-1-azetidinyl)-2-pyridinyl)-6-((1-hydroxy-2-methyl-2-propanyl)amino)-3-pyridinecarboxamide] | 7.12 |
| CC(CO)(CO)Nc1ccc(C(=O)Nc2cccc(Br)n2)c(N2CCC3(CC2)CC3)n1 [Example 164, 2-(6-azaspiro[2.5]octan-6-yl)-N-(6-bromo-2-pyridinyl)-6-((1,3-dihydroxy-2-methyl-2-propanyl)amino)-3-pyridinecarboxamide] | 5.56 |

Next, values leading:

| pIC50 | SMILES |
| --- | --- |
| 6.94 | C[C@@H]1CN(c2cccc(NC(=O)c3ccc([C@@](O)(CO)C(F)(F)F)nc3N3CCC4(CC3)CC4)n2)CCO1 (single isomer, unassigned) [Example 206] |
| 6.80 | Cc1cc(NC(=O)c2ccc(NC(C)(C)CO)nc2N2CCC3(CC2)CC3)nc(NC(C)(C)CO)c1 [Example 170, 2-(6-azaspiro[2.5]octan-6-yl)-6-((1-hydroxy-2-methyl-2-propanyl)amino)-N-(6-((1-hydroxy-2-methyl-2-propanyl)amino)-4-methyl-2-pyridinyl)-3-pyridinecarboxamide] |
| 6.60 | C[C@@H]1CO[C@@H](C)CN1c1cccc(NC(=O)c2ccc(NC(C)(C)CO)nc2N2CCC3(CC2)CC3)n1 (racemic) [Example 187, N-(6-((2S,5R)-2,5-dimethylmorpholino)pyridin-2-yl)-6-((1-hydroxy-2-methylpropan-2-yl)amino)-2-(6-azaspiro[2.5]octan-6-yl)nicotinamide] |
| 6.20 | COCC(C)(C)Nc1ccc(C(=O)Nc2cccc(N3CCO[C@H](C)C3)n2)c(N2CCC3(CC2)CC3)n1 [Example 200, 2-(6-azaspiro[2.5]octan-6-yl)-6-((1-methoxy-2-methyl-2-propanyl)amino)-N-(6-((2R)-2-methyl-4-morpholinyl)-2-pyridinyl)-3-pyridinecarboxamide] |
| 6.55 | CC(C)(C)NS(=O)(=O)c1cccc(NC(=O)c2ccc(C(F)(CO)CO)nc2N2CCC3(CC2)CC3)n1 [Example 194, 2-(6-azaspiro[2.5]octan-6-yl)-6-(2-fluoro-1,3-dihydroxy-2-propanyl)-N-(6-((2-methyl-2-propanyl)sulfamoyl)-2-pyridinyl)-3-pyridinecarboxamide] |
| 6.45 | CC(C)(CO)Nc1ccc(C(=O)Nc2cccc(N3CCC(O)C3(C)C)n2)c(N2CCC3(CC2)CC3)n1 (stereo not drawn) [Example 221, N-(6-(3-hydroxy-2,2-dimethylpyrrolidin-1-yl)pyridin-2-yl)-6-((1-hydroxy-2-methylpropan-2-yl)amino)-2-(6-azaspiro[2.5]octan-6-yl)nicotinamide] |
| 7.16 | O=C(Nc1cccc(N2CCOCC2)n1)c1ccc(C(O)(CO)C(F)(F)F)nc1N1CCC2(CC1)CC2 (stereo not drawn) [Example 181, N-(6-morpholinopyridin-2-yl)-2-(6-azaspiro[2.5]octan-6-yl)-6-(1,1,1-trifluoro-2,3-dihydroxypropan-2-yl)nicotinamide] |
| 5.65 | CC1(C)COC(=O)N1c1ccc(C(=O)Nc2cccc(N3CC[C@H](O)C3(C)C)n2)c(N2CCC3(CC2)CC3)n1 (stereo in doubt) [Example 220, 6-(4,4-dimethyl-2-oxooxazolidin-3-yl)-N-(6-(3-hydroxy-2,2-dimethylpyrrolidin-l-yl)pyridin-2-yl)-2-(6-azaspiro[2.5]octan-6-yl)nicotinamide] |
| 6.94 | CC(C)(CO)Nc1ccc(C(=O)Nc2cccc(N3CCCC(O)(CO)C3)n2)c(N2CCC3(CC2)CC3)n1 (stereo not drawn) [Example 230, 6-((1-hydroxy-2-methylpropan-2-yl)amino)-N-(6-(3-hydroxy-3-(hydroxymethyl)piperidin-1-yl)pyridin-2-yl)-2-(6-azaspiro[2.5]octan-6-yl)nicotinamide] |
| 6.81 | COC(=O)C(F)(C(=O)OC)c1ccc(C(=O)Nc2cccc(N3CCO[C@H](C)C3)n2)c(N2CCC3(CC2)CC3)n1 [Example 198, dimethyl (6-(6-azaspiro[2.5]octan-6-yl)-5-((6-((2R)-2-methyl-4-morpholinyl)-2-pyridinyl)carbamoyl)-2-pyridinyl)(fluoro)propanedioate] |
| 6.96 | CC(C)(C)NS(=O)(=O)c1cccc(NC(=O)c2ccc([C@@](C)(O)CO)nc2N2CCC3(CC2)CC3)n1 (single isomer, unassigned) [Example 178] |
| 7.00 | CC(C)(C)NS(=O)(=O)c1cccc(NC(=O)c2ccc([C@](O)(CO)C(F)(F)F)nc2N2CCC3(CC2)CC3)n1 (single isomer, unassigned) [Example 176] |
| 7.06 | CC(C)(C)NS(=O)(=O)c1cccc(NC(=O)c2ccc([C@](C)(O)CO)nc2N2CCC3(CC2)CC3)n1 (single isomer, unassigned) [Example 177] |
